# Measurements taken from ChEMBL document CHEMBL3351581, “Synthesis of prenylated quinolinecarboxylic acid derivatives and their anti-obesity activities” (Bioorg Med Chem, 2015).
# Calls of active or inactive are those of the source. The rule behind the calls is not given here.
# Assays:
# [1] = test system: Liver; assay: Increase in oxygen consumption rate of mitochondrial state 4 respiration in ICR mouse liver fraction at 20 uM by Clark-type oxygen electrode assay; format: functional
# [2] = test system: Liver; assay: Increase in oxygen consumption rate of mitochondrial state 3 respiration in ICR mouse liver fraction at 20 uM by Clark-type oxygen electrode assay; format: functional
# [3] = test system: Liver; assay: Toxicity in ICR mouse liver fraction assessed as ROS production at 1 to 20 uM by Clark-type oxygen electrode assay; format: tissue-based
# [4] = test system: Liver; assay: Increase in oxygen consumption rate of mitochondrial state 4 respiration in ICR mouse liver fraction at 10 uM by Clark-type oxygen electrode assay; format: functional
# [5] = test system: Mus musculus; assay: Antiobesity activity in ICR mouse assessed as body weight reduction at 0.4 to 0.8 mg/kg/week, ip for 6 weeks measured after 6 weeks relative to control; format: functional; set-up: scale not given: the % may be the effect or the level left; conditions: route intraperitoneal
# [6] = test system: Mus musculus; assay: Toxicity in ICR mouse assessed as lesions in liver at 0.4 to 0.8 mg/kg/week, ip for 6 weeks measured after 6 weeks relative to control; format: organism-based; set-up: route intraperitoneal; conditions: in vivo, 1008 h
# [7] = test system: Mus musculus; assay: Toxicity in ICR mouse assessed as lesions in kidney at 0.4 to 0.8 mg/kg/week, ip for 6 weeks measured after 6 weeks relative to control; format: organism-based; set-up: route intraperitoneal; conditions: in vivo, 1008 h
Compound,Activity [1],also measured
COc1cc(C(=O)NCC=C(C)C)nc2c(OCC=C(C)C)cccc12,inactive,
COc1cc(C(=O)OC/C=C(\C)CCC=C(C)C)nc2c(OCC=C(C)C)cccc12,inactive,
CCCCCOc1cc(C(=O)OCC=C(C)C)nc2c(OCC=C(C)C)cccc12,Active,
COc1cc(C(=O)OCC=C(C)C)nc2c(OC/C=C(\C)CCC=C(C)C)cccc12,inactive,
COc1cc(C(=O)OCC=C(C)C)nc2c(OC)cccc12,inactive,
COc1cc(C(=O)OCC=C(C)C)nc2c(OCC=C(C)C)cccc12,Active,Activity [2]: inactive; Activity [3]: Non-toxic
CC(C)=CCOC(=O)c1cc(OCC=C(C)C)c2cccc(OCC=C(C)C)c2n1,Active,Activity [2]: inactive; Activity [4]: Active; Activity [3]: Non-toxic; Activity [5]: 6%; Activity [6]: Non-toxic; Activity [7]: Non-toxic
COc1cc(C(=O)OC2CCCC2)nc2c(OCC=C(C)C)cccc12,inactive,
COc1cc(C(=O)OCC=C(C)C)nc2c(OC3CCCC3)cccc12,inactive,
COc1cc(C(=O)OCCC(C)C)nc2c(OCC=C(C)C)cccc12,inactive,
COC(=O)c1cc(OC)c2cccc(OCC=C(C)C)c2n1,inactive,
COc1cc(C(=O)OCC=C(C)C)nc2c(OCCC(C)C)cccc12,inactive,
